Drawing on ChEMBL document CHEMBL1122529, “Synthesis of 5-aryl-2H-tetrazoles, 5-aryl-2H-tetrazole-2-acetic acids, and [(4-phenyl-5-aryl-4H-1,2,4-triazol-3-yl)thio]acetic acids as possible superoxide scavengers and antiinflammatory agents” (1984), this text covers inhibition, inhibition in vivo and Mean index for 23 compounds.

By inhibition is commonly meant the share of the control response that was lost under treatment. One may read the inhibition in vivo as the relative decrease from the control value, in per cent.

What all share (format): functional
For assay [1], the species on record is Rattus norvegicus. Kind of assay: In Vitro superoxide scavenging activity at a concentration of 1.0 x 10E4 M.
The species entered for assay [2] is Rattus norvegicus. Kind of assay: In Vitro superoxide scavenging activity by the analysis of variance method at concentration of 0.1 x 10E4 M.
The species named for assay [3] is Rattus norvegicus. Kind of assay: In Vitro superoxide scavenging activity by the analysis of variance method at concentration of 0.5 x 10E4 M.
The test system of assay [4] is Rattus norvegicus. Kind of assay: Percentage inhibition of Carrageenan-induced rat paw edema at a concentration of 32 mg/kg. For orientation: Carrageenan injected into the paw causes an acute inflammation.
The subject of assay [5] is Rattus norvegicus. Kind of assay: Percentage inhibition of reverse passive Arthus reaction was reported at a concentration of 30 mg/kg.
For assay [6], the system named is Rattus norvegicus. Kind of assay: The mean index of reverse passive Arthus reaction was calculated 3 h-postinjection at a concentration of 30 mg/kg.
For assay [7], the species on record is Rattus norvegicus. Kind of assay: In Vitro superoxide scavenging activity by the analysis of variance method at concentration of 2.0 x 10E4 M.
Assay [8] deals with Rattus norvegicus. Kind of assay: Percentage inhibition of Carrageenan-induced rat paw edema at a concentration of 0.3 mg/kg.

Turning to `COc1cc(-c2nnc(SCC(=O)O)n2-c2ccccc2)cc(OC)c1OC`, the inhibition in the assay listed under Rattus norvegicus [1] worked out at 0%.
For the compound `O=C(O)CSc1nnc(-c2ccc(O)c(O)c2)n1-c1ccccc1`, the values for the inhibition in the assay listed under Rattus norvegicus [1], in the assay listed under Rattus norvegicus [2] and in the assay listed under Rattus norvegicus [3] were 21.5%, 8.3% and 11.8%, respectively.
As for `CCCCC1C(=O)N(c2ccccc2)N(c2ccccc2)C1=O` [PHENYLBUTAZONE], the inhibition in vivo at 32 mg/kg with Rattus norvegicus [4] was 47%.
Regarding `COc1cc(-c2nn[nH]n2)cc(OC)c1OC`, the inhibition in the assay filed under Rattus norvegicus [1] was found to be 0%.
On to `O=C(O)Cn1nnc(-c2ccc(O)c(O)c2)n1`, for which the inhibition was determined as 18.8% in the assay filed under Rattus norvegicus [1], 0% in the assay listed under Rattus norvegicus [2] and 7.9% in the assay filed under Rattus norvegicus [3].
In the assay filed under Rattus norvegicus [1], `O=C(O)Cn1nnc(-c2ccccc2)n1` yielded an inhibition of 0%.
On the same count and under the same terms, the value for `O=C(O)Cn1nnc(-c2ccc(O)cc2)n1` was 0%.
As to `O=C(O)CSc1nnc(-c2cc(O)c(O)c(O)c2)n1-c1ccccc1`, the inhibition in vivo at 32 mg/kg in the assay on Rattus norvegicus [4] was determined as 18%. For the same compound, in the assay with Rattus norvegicus [5], the inhibition in vivo at 30 mg/kg was -28.2%. Also, the figures for the inhibition in the assay filed under Rattus norvegicus [1], in the assay filed under Rattus norvegicus [2] and in the assay listed under Rattus norvegicus [3] were 65.7%, 16.7% and 22.1%, respectively. For the same compound, the Mean index with Rattus norvegicus [6] is on record as 52.
Regarding `O=C(O)CSc1nnc(-c2ccccc2)n1-c1ccccc1`, in the assay listed under Rattus norvegicus [1], the inhibition came to 0%.
The compound `COc1ccc(-c2nn[nH]n2)cc1` yielded an inhibition in the assay listed under Rattus norvegicus [1] of 0%.
`Oc1ccc(-c2nn[nH]n2)cc1O`: the values for the inhibition in the assay listed under Rattus norvegicus [1], in the assay filed under Rattus norvegicus [2] and in the assay listed under Rattus norvegicus [3] were 37.5%, 6.9% and 23%, respectively.
Regarding `COc1ccc(-c2nnc(SCC(=O)O)n2-c2ccccc2)cc1OC`, in the assay listed under Rattus norvegicus [1], the inhibition is 0%.
Same read-out and setting: the value for `COc1ccc(-c2nnn(CC(=O)O)n2)cc1` was 0%.
Consider `Oc1cc(-c2nn[nH]n2)cc(O)c1O`, for which the inhibition in vivo at 32 mg/kg with Rattus norvegicus [4] worked out at 6%. Further, the inhibition in vivo at 30 mg/kg in the assay with Rattus norvegicus [5] is -5%. In addition, the inhibition in the assay filed under Rattus norvegicus [1] was found to be 66.9%; in the assay listed under Rattus norvegicus [2], 16%; in the assay listed under Rattus norvegicus [3], 48.4%. Moreover, the Mean index in the assay with Rattus norvegicus [6] is listed as 42.6.
Take `O=C(O)Cn1nnc(-c2cc(O)c(O)c(O)c2)n1`: the inhibition in vivo at 32 mg/kg in the assay with Rattus norvegicus [4] amounted to 14%. In the assay on Rattus norvegicus [5], the inhibition in vivo at 30 mg/kg is -28.7%. Also, the inhibition worked out at 78% in the assay listed under Rattus norvegicus [1], 15.3% in the assay filed under Rattus norvegicus [2] and 55.9% in the assay listed under Rattus norvegicus [3]. Moreover, the Mean index with Rattus norvegicus [6] is reported as 52.
Regarding `COc1ccc(-c2nnn(CC(=O)O)n2)cc1OC`, the inhibition in the assay filed under Rattus norvegicus [1] came to 0%.
Turning to `Oc1ccc(-c2nn[nH]n2)cc1`, in the assay listed under Rattus norvegicus [7], the inhibition came to 0%.
`COc1ccc(-c2nn[nH]n2)cc1OC`: the inhibition in the assay filed under Rattus norvegicus [1] was determined as 0%.
For `C[C@@H]1C[C@H]2[C@@H]3CCC4=CC(=O)C=C[C@]4(C)[C@@]3(F)[C@@H](O)C[C@]2(C)[C@@]1(O)C(=O)CO` [DEXAMETHASONE], in the assay on Rattus norvegicus [8], the inhibition in vivo at 0.3 mg/kg came out at 69%.
In the assay filed under Rattus norvegicus [1], `COc1ccc(-c2nnc(SCC(=O)O)n2-c2ccccc2)cc1` had an inhibition of 0%.
The same measure, in the same setting: the value for `c1ccc(-c2nnn[nH]2)cc1` was 0%; that for `COc1cc(-c2nnn(CC(=O)O)n2)cc(OC)c1OC` was 0%.
On the same count and under the same terms, under `O=C(O)CSc1nnc(-c2ccc(O)cc2)n1-c1ccccc1` stands 11.6%.
